# Test results reported in patent publication US12060349B2, “Glucosylceramide synthase inhibitors” (Genzyme Corporation, priority 2012, dated 2024).
# pIC50: −log10 of the molar value.
# Tests used:
# [1] = system: GM3 expression on the cell surface, B16 mouse melanoma cells; assay: cell based phenotypic assay, cell surface GM3 by antibody mediated immunofluorescence, B16 (GM3 B16 IC50); settings: Mus musculus, B16 mouse melanoma cells; 50% inhibition of GM3 expression on the cell surface; read-out: GM3 B16 IC50
# Summary of the method: (§1)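 Both lines undergo the phenotypic GM3 assay, and viability is recorded from that same cell-based run.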
# [2] = system: C32 human melanoma cells; assay: cell viability in the C32 cell-based assay (Viability, C32 IC50); settings: Homo sapiens, C32, C32 cells; concentration causing 50% cell death; values greater than 10 represent a lack of cell death; read-out: Viability, C32 IC50
# Summary of the method: (§2)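 Cell death was scored within the cell-based GM3 experiment for each line. The viability value is the concentration producing 50% death, and numbers exceeding 10 signify no cytotoxicity.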
# [3] = system: GM3 expression on the cell surface, C32 human melanoma cells; assay: cell based phenotypic assay, cell surface GM3 by antibody mediated immunofluorescence, C32 (GM3 C32 IC50); settings: Homo sapiens, C32 human melanoma cells; 50% inhibition of GM3 expression on the cell surface; read-out: GM3 C32 IC50
# Summary of the method: as §1
# [4] = system: B16 mouse melanoma cells; assay: cell viability in the B16 cell-based assay (Viability, B16 IC50); settings: Mus musculus, B16, B16 cells; concentration causing 50% cell death; values greater than 10 represent a lack of cell death; read-out: Viability, B16 IC50
# Summary of the method: as §2
# [5] = molecular target: T1, glucosylceramide synthase (Homo sapiens, UniProt Q16739); assay: microsomal assay measuring conversion of ceramide to glucosylceramide by HPLC (GCS IC50); type: biochemical; settings: concentration causing 50% inhibition of glucosylceramide synthase activity
# T1 construct: Microsomes were isolated from A375 human melanoma cells; endogenous in cells; host or cells: A375 human melanoma cells (microsomal fraction, 100,000 g pellet)
# T1 sequence (Q16739 1-394): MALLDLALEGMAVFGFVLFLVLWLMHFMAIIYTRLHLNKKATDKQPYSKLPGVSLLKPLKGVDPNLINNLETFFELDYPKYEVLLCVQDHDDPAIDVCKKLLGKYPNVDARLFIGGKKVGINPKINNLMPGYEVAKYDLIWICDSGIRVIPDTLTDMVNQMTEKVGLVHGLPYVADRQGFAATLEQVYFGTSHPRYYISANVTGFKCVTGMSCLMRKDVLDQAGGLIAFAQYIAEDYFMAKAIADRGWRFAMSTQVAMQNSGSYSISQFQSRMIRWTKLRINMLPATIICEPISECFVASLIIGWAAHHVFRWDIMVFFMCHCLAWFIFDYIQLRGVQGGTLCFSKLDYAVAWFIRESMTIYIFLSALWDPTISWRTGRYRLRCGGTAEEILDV
# Summary of the method: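 IC50 is the compound concentration halving glucosylceramide synthase activity. Activity was measured in microsomes, with HPLC quantifying glucosylceramide formed from ceramide.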
structure (smiles),measurement,setting,value
"CC1(NC(=O)C2CCN(c3cccc(-c4ncccn4)c3)CC2)CCN2CCC1CC2 (centres unmarked) [Example 39, N-(4-Methyl-1-azabicyclo[3.2.2]nonan-4-yl)-1-(3-(pyrimidin-2-yl)phenyl)piperidine-4-carboxamide]",pIC50,[1],5.14
same,pIC50,[2],5.50
same,pIC50,[3],6.90
same,pIC50,[4],≤ 5.00
same,pIC50,[5],5.74
"CC1(NC(=O)C2CCN(c3cccc(-c4cncnc4)c3)CC2)CCN2CCC1CC2 (centres unmarked) [Example 40, N-(4-Methyl-1-azabicyclo[3.2.2]nonan-4-yl)-1-(3-(pyrimidin-5-yl)phenyl)piperidine-4-carboxamide]",pIC50,[1],5.26
same,pIC50,[2],6.00
same,pIC50,[3],7.82
same,pIC50,[4],7.15
same,pIC50,[5],6.54
"CC1(NC(=O)C2CCN(c3nccc(-c4ccc(F)cc4)n3)CC2)CCN2CCC1CC2 (centres unmarked) [Example 41, 1-(4-(4-Fluorophenyl)pyrimidin-2-yl)-N-(4-methyl-1-azabicyclo[3.2.2]nonan-4-yl)piperidine-4-carboxamide]",pIC50,[1],8.01
same,pIC50,[2],7.70
same,pIC50,[3],9.91
same,pIC50,[4],5.19
same,pIC50,[5],8.94
"CC1(NC(=O)C2CCN(c3nccc(-c4ccc(F)cc4)n3)CC2)CN2CCC1CC2 (centres unmarked) [Example 44, 1-(4-(4-Fluorophenyl)pyrimidin-2-yl)-N-(3-methylquinuclidin-3-yl)piperidine-4-carboxamide]",pIC50,[1],7.30
same,pIC50,[2],6.50
same,pIC50,[3],9.69
same,pIC50,[4],5.03
same,pIC50,[5],8.91
"O=C(NC1CN2CCC1CC2)C1CCN(c2nccc(-c3ccc(F)cc3)n2)CC1 (centres unmarked) [Example 45, 1-(4-(4-Fluorophenyl)pyrimidin-2-yl)-N-(quinuclidin-3-yl)piperidine-4-carboxamide]",pIC50,[1],6.90
same,pIC50,[2],6.00
same,pIC50,[3],9.34
same,pIC50,[4],≤ 5.00
same,pIC50,[5],8.57
"CC1(NC(=O)C2CCN(c3cncc(-c4ccc(F)cc4)n3)CC2)CCN2CCC1CC2 (centres unmarked) [Example 46, 1-(6-(4-Fluorophenyl)pyrazin-2-yl)-N-(4-methyl-1-azabicyclo[3.2.2]nonan-4-yl)piperidine-4-carboxamide]",pIC50,[1],7.12
same,pIC50,[2],6.50
same,pIC50,[3],9.37
same,pIC50,[4],5.14
same,pIC50,[5],8.55
"CC1(NC(=O)C2CCN(c3cncc(-c4ccc(F)cc4)n3)CC2)CN2CCC1CC2 (centres unmarked) [Example 49, 1-(6-(4-Fluorophenyl)pyrazin-2-yl)-N-(3-methylquinuclidin-3-yl)piperidine-4-carboxamide]",pIC50,[1],6.84
same,pIC50,[2],6.00
same,pIC50,[3],9.09
same,pIC50,[4],5.09
same,pIC50,[5],8.39
"CC1(NC(=O)C2CCN(c3ncnc(-c4ccc(F)cc4)n3)CC2)CCN2CCC1CC2 (centres unmarked) [Example 50, 1-(4-(4-Fluorophenyl)-1,3,5-triazin-2-yl)-N-(4-methyl-1-azabicyclo[3.2.2]nonan-4-yl)piperidine-4-carboxamide]",pIC50,[1],6.79
same,pIC50,[2],5.50
same,pIC50,[3],9.15
same,pIC50,[4],≤ 5.00
same,pIC50,[5],7.49
"CC1(NC(=O)C2CCN(c3ccnc(-c4ccc(F)cc4)n3)CC2)CCN2CCC1CC2 (centres unmarked) [Example 51, 1-(2-(4-Fluorophenyl)pyrimidin-4-yl)-N-(4-methyl-1-azabicyclo[3.2.2]nonan-4-yl)piperidine-4-carboxamide]",pIC50,[1],6.47
same,pIC50,[2],5.50
same,pIC50,[3],8.41
same,pIC50,[4],5.08
same,pIC50,[5],7.33
"CC1(NC(=O)N2CCC(c3cccc(-c4ccccc4)c3)CC2)CCN2CCC1CC2 (centres unmarked) [Example 52, 4-([1,1′-Biphenyl]-3-yl)-N-(4-methyl-1-azabicyclo[3.2.2]nonan-4-yl)piperidine-1-carboxamide]",pIC50,[1],5.97
same,pIC50,[2],5.06
same,pIC50,[3],6.47
same,pIC50,[4],5.13
same,pIC50,[5],6.30
"CC1(NC(=O)N2CCC(c3ccc(-c4ccccc4)cc3)CC2)CCN2CCC1CC2 (centres unmarked) [Example 53, 4-([1,1′-Biphenyl]-4-yl)-N-(4-methyl-1-azabicyclo[3.2.2]nonan-4-yl)piperidine-1-carboxamide]",pIC50,[1],5.91
same,pIC50,[2],5.20
same,pIC50,[3],6.76
same,pIC50,[4],5.17
same,pIC50,[5],5.66
"CC1(NC(=O)C2CCN(c3ncc(F)c(-c4ccc(F)cc4)n3)CC2)CN2CCC1CC2 (centres unmarked) [Example 54, 1-(5-Fluoro-4-(4-fluorophenyl)pyrimidin-2-yl)-N-(3-methylquinuclidin-3-yl)piperidine-4-carboxamide]",pIC50,[1],6.97
same,pIC50,[2],5.09
same,pIC50,[3],10.04
same,pIC50,[4],5.29
same,pIC50,[5],9.13
"CC1(NC(=O)C2CCN(c3ncc(F)c(-c4ccc(F)cc4)n3)CC2)CCN2CCC1CC2 (centres unmarked) [Example 55, 1-(5-Fluoro-4-(4-fluorophenyl)pyrimidin-2-yl)-N-(4-methyl-1-azabicyclo[3.2.2]nonan-4-yl)piperidine-4-carboxamide]",pIC50,[1],7.32
same,pIC50,[2],7.00
same,pIC50,[3],10.32
same,pIC50,[4],5.43
same,pIC50,[5],9.13
"COCCOc1ccc(-c2nc(N3CCC(C(=O)NC4(C)CCN5CCC4CC5)CC3)ncc2F)cc1 (centres unmarked) [Example 56, 1-(5-Fluoro-4-(4-(2-methoxyethoxy)phenyl)pyrimidin-2-yl)-N-(4-methyl-1-azabicyclo[3.2.2]nonan-4-yl)piperidine-4-carboxamide]",pIC50,[1],7.68
same,pIC50,[2],5.13
same,pIC50,[3],9.76
same,pIC50,[4],5.17
same,pIC50,[5],8.33
"COCCOCc1ccc(-c2nc(N3CCC(C(=O)NC4(C)CCN5CCC4CC5)CC3)ncc2F)cc1 (centres unmarked) [Example 58, 1-(5-Fluoro-4-(4-((2-methoxyethoxy)methyl)phenyl)pyrimidin-2-yl)-N-(4-methyl-1-azabicyclo[3.2.2]nonan-4-yl)piperidine-4-carboxamide]",pIC50,[1],7.39
same,pIC50,[2],6.00
same,pIC50,[3],9.77
same,pIC50,[4],≤ 5.00
same,pIC50,[5],8.47
"COCCOCc1ccc(-c2nc(N3CCC(C(=O)NC4(C)CN5CCC4CC5)CC3)ncc2F)cc1 (centres unmarked) [Example 59, 1-(5-Fluoro-4-(4-((2-methoxyethoxy)methyl)phenyl)pyrimidin-2-yl)-N-(3-methylquinuclidin-3-yl)piperidine-4-carboxamide]",pIC50,[1],6.82
same,pIC50,[2],6.33
same,pIC50,[3],9.47
same,pIC50,[4],≤ 5.00
same,pIC50,[5],8.04
"COCc1ccc(-c2nc(N3CCC(C(=O)NC4(C)CCN5CCC4CC5)CC3)ncc2F)cc1 (centres unmarked) [Example 60, 1-(5-Fluoro-4-(4-(methoxymethyl)phenyl)pyrimidin-2-yl)-N-(4-methyl-1-azabicyclo[3.2.2]nonan-4-yl)piperidine-4-carboxamide]",pIC50,[1],7.81
same,pIC50,[2],7.33
same,pIC50,[3],10.00
same,pIC50,[4],5.46
same,pIC50,[5],8.77
"COCc1ccc(-c2nc(N3CCC(C(=O)NC4(C)CN5CCC4CC5)CC3)ncc2F)cc1 (centres unmarked) [Example 61, 1-(5-Fluoro-4-(4-(methoxymethyl)phenyl)pyrimidin-2-yl)-N-(3-methylquinuclidin-3-yl)piperidine-4-carboxamide]",pIC50,[1],7.28
same,pIC50,[2],7.33
same,pIC50,[3],9.89
same,pIC50,[4],5.07
same,pIC50,[5],8.85
"COCCCOc1ccc(-c2nc(N3CCC(C(=O)NC4(C)CCN5CCC4CC5)CC3)ncc2F)cc1 (centres unmarked) [Example 62, 1-(5-Fluoro-4-(4-(3-methoxypropoxy)phenyl)pyrimidin-2-yl)-N-(4-methyl-1-azabicyclo[3.2.2]nonan-4-yl)piperidine-4-carboxamide]",pIC50,[1],7.98
same,pIC50,[2],7.00
same,pIC50,[3],9.96
same,pIC50,[4],5.62
same,pIC50,[5],9.03
"COCCCOc1ccc(-c2nc(N3CCC(C(=O)NC4(C)CN5CCC4CC5)CC3)ncc2F)cc1 (centres unmarked) [Example 63, 1-(5-Fluoro-4-(4-(3-methoxypropoxy)phenyl)pyrimidin-2-yl)-N-(3-methylquinuclidin-3-yl)piperidine-4-carboxamide]",pIC50,[1],7.39
same,pIC50,[2],7.00
same,pIC50,[3],10.01
same,pIC50,[4],5.45
same,pIC50,[5],9.23
"CC1(NC(=O)C2CCN(c3nccc(-c4ccc(F)c(F)c4)n3)CC2)CCN2CCC1CC2 (centres unmarked) [Example 64, 1-(4-(3,4-Difluorophenyl)pyrimidin-2-yl)-N-(4-methyl-1-azabicyclo[3.2.2]nonan-4-yl)piperidine-4-carboxamide]",pIC50,[1],7.48
same,pIC50,[2],5.26
same,pIC50,[3],10.21
same,pIC50,[4],5.47
same,pIC50,[5],8.77
"CC1(NC(=O)C2CCN(c3nccc(-c4cc(F)cc(F)c4)n3)CC2)CCN2CCC1CC2 (centres unmarked) [Example 65, 1-(4-(3,5-Difluorophenyl)pyrimidin-2-yl)-N-(4-methyl-1-azabicyclo[3.2.2]nonan-4-yl)piperidine-4-carboxamide]",pIC50,[1],7.25
same,pIC50,[2],6.67
same,pIC50,[3],10.03
same,pIC50,[4],5.38
same,pIC50,[5],8.88
